Patent US20090123979A1, “Methods of reducing the inhibitory effect of a tannin on the enzymatic hydrolysis of cellulosic material” (Novozymes, Inc., priority 2007, published 2009)

B1: Aspergillus oryzae tannase: Aspergillus oryzae tannase (Novozymes A/S, Bagsværd, Denmark) (protein, listed as Aspergillus oryzae)
chain: MPSLRRLLPFLAAGSAALASQDTFQGKCTGFADKINLPNVRVNFVNYVPGGTNLSLPDNPTSCGTTSQVVSEDVCRIAMAVATSNSSEITLEAWLPQNYTGRFLSTGNGGLSGCIQYYDLAYTSGLGFATVGANSGHNGTSGEPFYHHPEVLEDFVHRSVHTGVVVGKQLTKLFYEEGFKKSYYLGCSTGGRQGFKSVQKYPNDFDGVVAGAPAFNMINLMSWSAHFYSITGPVGSDTYLSPDLWNITHKEILRQCDGIDGAEDGIIEDPSLCSPVLEAIICKPGQNTTECLTGKQAHTVREIFSPLYGVNGTLLYPRMQPGSEVMASSIMYNGQPFQYSADWYRYVVYENPNWDATKFSVRDAAVALKQNPFNLQTWDADISSFRKAGGKVLTYHGLMDQLISSENSKLYYARVAETMNVPPEELDEFYRFFQISGMAHCSGGDGAYGIGNQLVTYNDANPENNVLMAMVQWVEKGIAPETIRGAKFTNGTGSAVEYTRKHCRYPRRNVYKGPGNYTDENAWQCV

What was measured:
[1] = tested on: T1, Cellulolytic Enzyme Composition #1; experiment: PCS hydrolysis by Cellulolytic Enzyme Composition #1 with added compounds; assay type: biochemical, Trichoderma reesei; settings: for effect on hydrolysis of PCS by Cellulolytic Enzyme Composition #1: 1 mM each compound, 43.4 g PCS and 0.25 g enzyme per liter, pH 5.0, 50° C.; for loss in initial rate of PCS hydrolysis / loss in the extent of PCS hydrolysis at day 4: 50 g PCS, 0.25 g enzyme per liter, methyl gallate and ellagic acid 10 mM, tannic acid 1 mM
T1 construct: other: PASC hydrolysis; mean ± SD; 0.01 g enzyme; Dixon plot linear regression intercept (1/Rate); other: AVICEL; rate from hydrolysis difference (%) at 0 and 6 hours; rate from hydrolysis difference; fused on or other part: The A. oryzae beta-glucosidase is the mature chain secreted behind the Humicola insolens endoglucanase V signal peptide, which is cleaved off
Protocol: (§1) Corn stover was pretreated at the U.S. Department of Energy National Renewable Energy Laboratory (NREL), […], Colo., USA, using dilute sulfuric acid. The following conditions were used for the pretreatment: 1.4 wt % sulfuric acid at 195° C. for 4.5 minutes. According to limit digestion with excess cellulase enzymes, the water-insoluble solids in the pretreated corn stover (PCS) contained 59.5% cellulose. Prior to use, the PCS was washed with a large volume of deionized water until soluble acid and sugars were removed. The dry weight of the water-washed PCS was 19.16%.
(§2) The effect of a mixture of tannic acid, ellagic acid, epicatechin, and six lignin constituent compounds (4-hydroxyl-2-methylbenzoic acid, vanillin, coniferyl alcohol, coniferyl aldehyde, ferulic acid, and syringaldehyde) was determined on the hydrolysis of PCS by Cellulolytic Enzyme Composition #1 or Cellulolytic Enzyme Composition #2. […] Cellulolytic Enzyme Composition #1 or Cellulolytic Enzyme Composition #2 was added at 0.25 g per liter. Reactions without the addition of the compounds served as controls. The capped tubes were incubated at 50° C. in an INNOVA® 4080 incubator shaker (New Brunswick Scientific Co., Inc., Edison, N.J., USA) at 150 rpm.
(§3) Aliquots of the suspensions, sampled over time, were filtered by centrifugation using a 0.45 μm MULTISCREEN® HV membrane (Millipore, Billerica, Mass., USA) at 2000 rpm for 15 minutes using a SORVALL® RT7 centrifuge (Thermo Fisher Scientific, Waltham, Mass., USA). When not used immediately, the filtered aliquots were frozen at −20° C. Sugar concentrations of the samples diluted in 0.005 M H2SO4 were measured after elution by 0.005 M H2SO4 at a flow rate of 0.4 ml/minute from a 4.6×250 mm AMINEX® HPX-87H column (Bio-Rad, Hercules, Calif., USA) at 65° C. with quantitation by integration of glucose and cellobiose using refractive index detection (CHEMSTATION®, AGILENT® 1100 HPLC, Agilent Technologies, Santa Clara, Calif., USA) calibrated with standards of glucose and cellobiose. The resultant equivalents were used to calculate the percentage of cellulose conversion for each reaction.
(§4) The degree of cellulose conversion to glucose plus cellobiose sugars (conversion, %) was calculated using the following equation:
(§5) Conversion(%)=(glucose+cellobiose×1.053)(mg/ml)×100×162/cellulose(mg/ml)×180)=(glucose+cellobiose×1.053)(mg/ml)×100/(cellulose(mg/ml)×1.111)
(§6) In this equation the factor 1.111 reflects the weight gain in converting cellulose to glucose, and the factor 1.053 reflects the weight gain in converting cellobiose to glucose. Cellulose in PCS was determined by a limit digest of PCS to release glucose and cellobiose.
(§7) Example 30 was repeated except that each compound was tested separately. […] Reactions without the addition of each compound served as controls.
(§8) The effect of OPC or flavonol on the hydrolysis of PCS by Cellulolytic Enzyme Composition #1 or Cellulolytic Enzyme Composition #2 was determined according to the procedure described in Example 30. OPC and flavonol were present at a concentration of 1 mM. Reactions without the addition of the compounds served as controls.
Methyl gallate and ellagic acid were compared at 10 mM to 1 mM tannic acid in the hydrolysis of PCS by Cellulolytic Enzyme Composition #1.

[2] = tested on: T2, Cellulolytic Enzyme Composition #2; experiment: PCS hydrolysis by Cellulolytic Enzyme Composition #2 with added compounds; assay type: biochemical, Trichoderma reesei; settings: 1 mM each compound; 43.4 g PCS and 0.25 g enzyme per liter, pH 5.0, 50° C.
T2 construct: Dixon plot linear regression intercept (1/Rate); other: PCS; rate from hydrolysis difference (%) at 0 and 5 hours; rate from hydrolysis difference (%); Ki (x-intercept of Dixon plot); other: PCS hydrolysis, Cellulolytic Enzyme Composition #2; OPC flavonol-equivalent; Ki expressed as galloyl constituents; oth; fused on or other part: In one component the Humicola insolens endoglucanase V (CEL45A) core is fused in front of the A. oryzae beta-glucosidase
Protocol: as §1, §2, §3, §4, §5, §6, §7, §8
(§9) The effective inhibitory concentration range for tannic acid and OPC was also determined by the “mini-scale” hydrolysis described in Example 30 with Cellulolytic Enzyme Composition #2. The concentration of tannic acid ranged from 0.1 mM to 1 mM, while the concentration of OPC ranged from 0.1 mM to 10 mM. Reactions without the addition of the tannic compounds served as controls.
(§10) However, prior to the addition of Cellulolytic Enzyme Composition #2, the mixture of PCS or OPC and tannic acid was treated with Aspergillus oryzae tannase (Novozymes A/S, Bagsværd, Denmark) at 10% of the final protein level for 30 minutes. Reactions without addition of the tannic acid, OPC, or tannase served as controls.

[3] = Tannase reduction of OPC inhibition of PCS hydrolysis by Cellulolytic Enzyme Composition #2; assay type: biochemical; settings: 10 mM OPC; 43 g PCS per liter; tannase at 10% of final protein level for 30 minutes
Protocol: (§11) Tannase was evaluated for its ability to reduce the inhibitory effect of tannic acid on OPC on PCS hydrolysis by Cellulolytic Enzyme Composition #2.
as §10

[4] = tested on: Cellulolytic Enzyme Composition #2; experiment: PCS hydrolysis by Cellulolytic Enzyme Composition #2 with added compounds; assay type: biochemical, Trichoderma reesei; settings: tannase alone, in the absence of tannic acid or OPC
Protocol: as §1, §2, §3, §4, §5, §6, §7, §8, §9, §10

[5] = Tannase reduction of tannic acid inhibition of PCS hydrolysis by Cellulolytic Enzyme Composition #1; assay type: biochemical; settings: 1 mM tannic acid
Protocol: To reduce the inhibition, tannase was added at 12.5, 25, and 50 mg per liter (or 0.21, 0.42, and 0.85 μM).

[6] = Tannase reduction of tannic acid inhibition of PCS hydrolysis by Cellulolytic Enzyme Composition #2; assay type: biochemical; settings: 1 mM tannic acid; 43 g PCS per liter; tannase at 10% of final protein level for 30 minutes
Protocol: as §11, §10

Molecule	effect on hydrolysis of PCS by Cellulolytic Enzyme Composition #1 [1]	loss in initial rate of PCS hydrolysis [1]	loss in the extent of PCS hydrolysis at day 4 [1]	also measured
O=c1oc2c(O)c(O)cc3c(=O)oc4c(O)c(O)cc1c4c23 [ellagic acid]	but not its constituent ellagic acid (FIG. 17C), significantly inhibited	~30%	~40%	
O=c1c(O)c(-c2ccccc2)oc2ccccc12 [flavonol]	not its constituent flavonol, was inhibitory			effect on hydrolysis of PCS by Cellulolytic Enzyme Composition #2 [2]: not inhibitory
COC(=O)c1cc(O)c(O)c(O)c1 [methyl gallate]		~10%	~10%	
B1				effect of tannase pretreatment on the inhibitory effect of OPC on Cellulolytic Enzyme Composition #2 [3]: significantly reduced; increase in hydrolysis extent of PCS by Cellulolytic Enzyme Composition #2 [4]: approximately 2%; reduction of tannic acid inhibition ([5]; tannase at approximately 12 mg per liter): approximately 50%; reduction of tannic acid inhibition ([5]; tannase at approximately 25 mg per liter): ~100%; effect of tannase pretreatment on the inhibitory effect of tannic acid on Cellulolytic Enzyme Composition #2 [6]: significantly reduced
